Assay results reported in PMC10064330, “Reversible Dual-Covalent Molecular Locking of the 14-3-3/ERRγ Protein–Protein Interaction as a Molecular Glue Drug Discovery Approach” (Journal of the American Chemical Society, 2023).

Molecular target: T1, 14-3-3γ/ERRγ complex (Homo sapiens, UniProt P61981+P62508)
T1 construct: made in house; host or cells: E. coli NiCo21 (DE3)
Assay: FA compound titration in HEK293 cell lysate
Format: binding
Conditions: 2 mg mL^–1 HEK293 cell lysate, 5 μM 14-3-3γ, 100 nM ERRγ peptide; read-out: half-maximal complex concentration (CC50)
Method: The cell represents a complex biochemical environment composed of a high reducing potential, a pool of potential nucleophiles, and competing 14-3-3 interaction partners. To investigate molecular lock-induced complex formation in a reactive environment, we first investigated binary 14-3-3/ERRγ formation in the HEK293 cell lysate. Here, the HEK293 cell lysate was titrated to the preformed 14-3-3γ/ERRγ complex in an FA assay and incubated overnight (Figure S25a–c). […] Next, we investigated molecular lock 5-induced complex formation (Figures S25 and S26). […] Moreover, early observed cell lysate-induced abolishment of the 14-3-3γ/ERRγ complex formation was almost completely recovered upon addition of 5, to similar complex concentrations to that in the absence of the lysate. […]
Figure S25. […] (d -e) Fluorescence anisotropy studies of compound 5 (right) titrations or DMSO as negative control (left) to a preformed complex of 14 -3-3γ (5 µM, 0.16 mg/mL) and fluorescein labelled ERRγ peptide (100 nM) at various concentrations HEK293 cell lysate (up to 2 mg/mL). […]
Figure S26. […] Fluorescence anisotropy studies of compound 5 titrations (or DMSO as negative control) to a preformed complex of 14-3-3γ (5 µM) and fluorescein labelled ERRγ peptide (100 nM). Assay is performed in presence of various concentrations HEK293 cell lysate (up to 2 mg/mL) and is measured over time (every hour for 12 hours). […]

T1 sequence (P61981 whole entry, other chains not shown): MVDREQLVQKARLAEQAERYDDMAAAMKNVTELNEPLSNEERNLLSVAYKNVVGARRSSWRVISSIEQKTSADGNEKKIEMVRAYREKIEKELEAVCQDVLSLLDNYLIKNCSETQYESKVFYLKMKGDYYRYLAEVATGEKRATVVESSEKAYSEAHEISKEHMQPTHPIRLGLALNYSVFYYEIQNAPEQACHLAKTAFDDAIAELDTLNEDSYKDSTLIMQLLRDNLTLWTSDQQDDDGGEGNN

## CN(C)CCSSCCN(C)C(=O)c1ccc(C=O)c(F)c1 [compound 5]
  CC50: 240 µM
